The results in this text go back to PMC10668980, “Molecular Cloning, Heterologous Expression, Purification, and Evaluation of Protein–Ligand Interactions of CYP51 of Candida krusei Azole-Resistant Fungal Strain” (Biomedicines, 2023).

Structures are written as SMILES. Read-outs that look alike come from different tables or passages of the source.

Assay [1] addresses T1, C. krusei CYP51 (C.krCYP51) (Pichia kudriavzevii, UniProt A9YUC7, K136R). As to conditions: for ΔAmax: absorbance change at ligand saturation; for Type of Spectral Response: difference spectrum 350–500 nm.
Protocol: (§1) Dissociation constants of complexes of CYP51 with the substrate, inhibitors, and potential ligands were determined by the spectrophotometric titration method in [37]. Briefly, a protein solution (final concentration of 1 μM) in buffer (50 mM potassium phosphate buffer, pH 7.4) was placed in two cuvettes (1 × 1 cm), and a baseline was recorded on a spectrophotometer at a wavelength of 350–500 nm. The spectra were detected with a Cary 5000 UV-VIS-NIR spectrophotometer. A ligand solution was added to the experimental cuvette and an equal volume of solvent was added to the control cuvette; the change in optical absorption was recorded in the same wavelength range. The solutions in the cuvettes were thoroughly mixed by pipetting after adding the ligand solution or solvent and incubated for 1–2 min. The maximum and minimum absorption values were registered.
(§2) The dissociation constant of the enzyme–ligand complex (Kd) was used as a parameter characterizing the strength of ligand binding in the active site.
The target of assay [2] is T1, C. krusei CYP51 (C.krCYP51). The assay is described as follows: biochemical.
Protocol: as §1, §2

T1 sequence (A9YUC7 2-528 K136R): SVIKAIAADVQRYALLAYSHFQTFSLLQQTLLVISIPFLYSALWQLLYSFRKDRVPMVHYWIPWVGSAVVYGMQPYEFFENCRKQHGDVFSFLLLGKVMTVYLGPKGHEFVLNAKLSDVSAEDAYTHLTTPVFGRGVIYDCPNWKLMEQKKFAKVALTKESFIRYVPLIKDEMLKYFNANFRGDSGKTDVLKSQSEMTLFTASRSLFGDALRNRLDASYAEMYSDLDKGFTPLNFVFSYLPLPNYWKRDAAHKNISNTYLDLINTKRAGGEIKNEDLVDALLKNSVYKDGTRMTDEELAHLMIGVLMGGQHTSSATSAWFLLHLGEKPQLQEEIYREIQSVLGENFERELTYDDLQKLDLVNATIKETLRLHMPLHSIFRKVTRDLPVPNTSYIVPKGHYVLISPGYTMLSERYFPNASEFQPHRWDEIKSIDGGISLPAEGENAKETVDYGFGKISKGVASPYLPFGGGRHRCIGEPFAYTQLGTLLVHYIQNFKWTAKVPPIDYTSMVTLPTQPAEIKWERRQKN

In the case of `c1ccc(-c2ccc(C(c3ccccc3)n3ccnc3)cc2)cc1` (stereo not drawn) [Bifonazole], in assay [1] (azoles), the ΔAmax is listed as 0.050 and the “Type of Spectral Response” value is reported as “type II”. Also, the Kd in assay [2] was found to be 3 nM.
As for `COC1C(OC2CCC3(C)C(C(O)CC4(O)C3CCC3(C)C(C(C)CCC(OC5OC(CO)C(O)C5O)C(C)C)CC(O)C34)C2O)OCC(O)C1O` (stereo not drawn) [Ch-4, granulatoside A], in assay [1] (steroid derivatives), the ΔAmax was found to be 0.0099 and the “Type of Spectral Response” value is reported as “type I”. In assay [2], this molecule yielded a dissociation constant (Kd) of 6950 nM.
For `CC(C)=CCC[C@@H](C)[C@H]1CC[C@@]2(C)C3=C(CC[C@]12C)[C@@]1(C)CC[C@H](O)C(C)(C)[C@@H]1CC3` [Lanosterol], in assay [1] (steroid derivatives), the ΔAmax is given as 0.031 and the “Type of Spectral Response” value is given as “type I”. Also, the Kd in assay [2] worked out at 2820 nM.
On to `CC(=O)O[C@@]12C=C[C@]3(C[C@H]1[N+](=O)[O-])C1CCc4cc(O)ccc4C1CC[C@@]32C` (stereo partly drawn) [73c, 14,17-etheno-3-hydroxy-16α-nitroestra-1,3,5(10)-trien-17β-yl acetate], for which, in assay [1] (steroid derivatives), the ΔAmax is 0.0069 and the “Type of Spectral Response” value is listed as “type I”. The molecule further gave a Kd in assay [2] of 10700 nM.
On to `CC(C)C(C=C[C@](C)(O)[C@H]1CC[C@H]2[C@@H]3CC=C4C[C@@H](O)CC[C@]4(C)[C@H]3CC[C@@]21C)=NO` [compound 99, 3β,20-dihydroxy-24-hydroxyiminocholest-5,22-diene], for which, in assay [1] (steroid derivatives), the ΔAmax came to 0.0047 and the “Type of Spectral Response” value was “type I”. This molecule displayed a Kd in assay [2] of 1020 nM.
For the molecule `C[C@@H](c1ncncc1F)[C@](O)(Cn1cncn1)c1ccc(F)cc1F` [Voriconazole], in assay [1] (azoles), the ΔAmax stood at 0.023 and the “Type of Spectral Response” value is recorded as “type II”. Further, the Kd in assay [2] was found to be 10 nM.
